Results taken from patent US10449258B2, “Antibody drug conjugate, intermediate, preparation method, pharmaceutical composition and uses thereof” (XDCEXPLORER (SHANGHAI) CO., LTD., priority 2015, dated 2019).
pIC50: −log10 of the molar value. Read-outs that look alike come from different tables or passages of the source.

Legend:
[1] = system: human breast tumor cell strain MCF7-Her2 with stable-transfected Her2; test: Cytotoxicity assay (growth inhibition, CellTiter-Glo) on MCF7-Her2
Experimental: (§1) Her2-positive human BT474 breast tumor cells (BT474 for short), Her2 low expression human MCF-7 breast tumor cells (MCF-7 for short), and human breast tumor cell strain MCF7-Her2 with stable-transfected Her2 outside MCF-7 (MCF-7-Her2 for short) were used (they were prepared by the methods disclosed in the literatures for preparing recombinant cells: Teemu T. Junttila, et al., Breast. Cancer Res. Treat., 2011, 128, 347 and Jeffrey J. Wallin et al., Clin. Cancer Res., 2012, 18, 3901, the contents of which are incorporated herein by reference in their entireties). The growth inhibition of tumor cells by T-CE-040 and T-CE-063 antibody drug conjugates were evaluated. BT474, MCF7-Her2 and MCF-7 were digested with 0.25% (v/v) trypsin and the cells were stripped and then suspended in 100 μL complete medium. 2,000 cells were inoculated in a 96-well plate and cultured, grew adherently overnight at 37° C., then 100 μL T-CE-040 and T-CE-063 antibody drug conjugates with different concentration gradients and the complete medium were added. After 120 hours, relative cell proliferation analysis was performed by adding 50 μL CellTiter-Glo® […] Cell Activation Reagent (CellTiter-GloB Luminescent, Promega).

[2] = system: Her2 low expression human MCF-7 breast tumor cells; test: Cytotoxicity assay (growth inhibition, CellTiter-Glo) on MCF-7
Experimental: as §1

[3] = system: Her2-positive human BT474 breast tumor cells; test: Cytotoxicity assay (growth inhibition, CellTiter-Glo) on BT474
Experimental: as §1

[4] = Homo sapiens, 120 h, read-out: Cytotoxicity assay IC50 MCF-Her2, MCF7-Her2 cells, 120 hours, CellTiter-Glo
[5] = Homo sapiens, MCF7, 120 h, read-out: Cytotoxicity assay IC50 MCF7, MCF-7 cells, 120 hours, CellTiter-Glo
[6] = Homo sapiens, BT-474, 120 h, read-out: Cytotoxicity assay IC50 BT474, BT474 cells, 120 hours, CellTiter-Glo
[7] = read-out: Cytotoxicity assay IC50 BT474, BT474 cells, 120 hours, CellTiter-Glo
[8] = read-out: Cytotoxicity assay IC50 MCF-Her2, MCF7-Her2 cells, 120 hours, CellTiter-Glo
[9] = read-out: Cytotoxicity assay IC50 MCF7, MCF-7 cells, 120 hours, CellTiter-Glo

| SMILES | pIC50 [1, 4] | pIC50 [2, 5] | pIC50 [3, 6] | pIC50 [3, 7] | pIC50 [1, 8] | pIC50 [2, 9] |
| --- | --- | --- | --- | --- | --- | --- |
| COc1cc2cc(c1Cl)N(C)C(=O)C[C@H](OC(=O)[C@@H](C)N(C)C(=O)CCS)C1(C)O[C@H]1[C@H](C)C1C[C@@](O)(NC(=O)O1)[C@H](OC)/C=C/C=C(\C)C2 (stereo partly drawn) [DM1, N2′-deacetyl-N2′-(3-mercapto-1-oxopropyl)maytansine, reference compound] | 7.85 | 7.80 | 7.68 | – | – | – |
| COc1cc2cc(c1Cl)N(C)C(=O)C[C@H](OC(=O)[C@H](C)OCCOCCOCCNC(=O)CBr)[C@]1(C)O[C@H]1[C@H](C)C1C[C@@](O)(NC(=O)O1)[C@H](OC)/C=C/C=C(\C)C2 [CE-050] | 8.15 | 7.84 | 7.58 | – | – | – |
| COCC(C)(CCC(=O)N(C)[C@@H](C)C(=O)O[C@H]1CC(=O)N(C)c2cc(cc(OC)c2Cl)C/C(C)=C/C=C/[C@@H](OC)[C@@]2(O)C[C@H](OC(=O)N2)[C@@H](C)[C@@H]2O[C@@]12C)SSC (stereo partly drawn) [CE-013] | 8.23 | 8.37 | – | 7.68 | – | – |
| COc1cc2cc(c1Cl)N(C)C(=O)C[C@H](OC(=O)[C@H]1CC[C@H](CSSC)CC1)[C@]1(C)O[C@H]1[C@H](C)[C@@H]1C[C@@](O)(NC(=O)O1)[C@H](OC)/C=C/C=C(\C)C2 [CE-031] | 8.04 | 7.82 | 8.12 | – | – | – |
| COc1cc2cc(c1Cl)N(C)C(=O)CC(OC(=O)[C@@H](C)N(C)C(=O)CCC(SSC)C(C)C)[C@]1(C)O[C@H]1[C@H](C)[C@@H]1C[C@@](O)(NC(=O)O1)[C@H](OC)/C=C/C=C(\C)C2 (stereo partly drawn) [CE-021] | 7.03 | 7.01 | 7.19 | – | – | – |
| COc1cc2cc(c1Cl)N(C)C(=O)C[C@H](OC(=O)[C@H](C)OCCSSC)[C@]1(C)O[C@H]1[C@H](C)[C@@H]1C[C@@](O)(NC(=O)O1)[C@H](OC)/C=C/C=C(\C)C2 [CE-026] | 7.77 | 7.39 | 7.85 | – | – | – |
| COc1cc2cc(c1Cl)N(C)C(=O)C[C@H](OC(=O)[C@H](C)N(C)C(CCSSC)C(F)(F)F)[C@]1(C)O[C@H]1[C@H](C)[C@@H]1C[C@@](O)(NC(=O)O1)[C@H](OC)/C=C/C=C(\C)C2 (stereo partly drawn) [CE-011] | 8.82 | 8.62 | 8.92 | – | – | – |
| COCC(CCC(=O)N(C)[C@@H](C)C(=O)OC1CC(=O)N(C)c2cc(cc(OC)c2Cl)C/C(C)=C/C=C/[C@@H](OC)[C@@]2(O)C[C@H](OC(=O)N2)[C@@H](C)[C@@H]2O[C@@]12C)(COC)SSC (stereo partly drawn) [CE-017] | 8.51 | 8.05 | 7.85 | – | – | – |
| COc1cc2cc(c1Cl)N(C)C(=O)C[C@H](OC(=O)[C@H](C)OCCCSC1CC(=O)N(C[C@H]3CC[C@H](C(=O)ON4C(=O)CCC4=O)CC3)C1=O)[C@]1(C)O[C@H]1[C@H](C)C1C[C@@](O)(NC(=O)O1)[C@H](OC)/C=C/C=C(\C)C2 (stereo partly drawn) [CE-035] | – | – | – | 7.57 | 7.82 | 7.59 |
| COc1cc2cc(c1Cl)N(C)C(=O)C[C@H](OC(=O)[C@H](C)OCCCSC1CC(=O)N(C[C@H]3CC[C@H](C(=O)ON4C(=O)CCC4=O)CC3)C1=O)[C@]1(C)O[C@H]1[C@H](C)C1C[C@@](O)(NC(=O)O1)[C@H](OC)/C=C/C=C(\C)C2 (stereo partly drawn) [CE-051] | – | – | – | 6.95 | 7.29 | 6.92 |
| COc1cc2cc(c1Cl)N(C)C(=O)C[C@H](OC(=O)[C@H](C)OCCOCCOCCN1C(=O)C=CC1=O)[C@]1(C)O[C@H]1[C@H](C)C1C[C@@](O)(NC(=O)O1)[C@H](OC)/C=C/C=C(\C)C2 [CE-047] | 6.87 | 6.49 | 6.49 | – | – | – |
| COc1cc2cc(c1Cl)N(C)C(=O)CC(OC(=O)[C@@H](C)N(C)C(=O)CCC(C)(C#N)SSC)[C@]1(C)O[C@H]1[C@H](C)[C@@H]1C[C@@](O)(NC(=O)O1)[C@H](OC)/C=C/C=C(\C)C2 (stereo partly drawn) [CE-018] | 6.40 | 5.80 | 7.38 | – | – | – |
| COc1cc2cc(c1Cl)N(C)C(=O)C[C@H](OC(=O)C(C)(C)OCCCSC1CC(=O)N(C[C@H]3CC[C@H](C(=O)ON4C(=O)CCC4=O)CC3)C1=O)[C@]1(C)O[C@H]1[C@H](C)C1C[C@@](O)(NC(=O)O1)[C@H](OC)/C=C/C=C(\C)C2 (stereo partly drawn) [CE-049] | 6.86 | 6.68 | 6.86 | – | – | – |
| COCC(S)(CCC(=O)N(C)[C@H](C)C(=O)OC1CC(=O)N(C)c2cc(cc(OC)c2Cl)C/C(C)=C/C=C/[C@@H](OC)[C@@]2(O)C[C@H](OC(=O)N2)[C@@H](C)[C@@H]2O[C@@]12C)COC (stereo partly drawn) [CE-023] | 6.45 | 6.34 | 6.51 | – | – | – |
| COc1cc2cc(c1Cl)N(C)C(=O)C[C@H](OC(=O)[C@H](C)N(C)C(CCSC1CC(=O)N(C[C@H]3CC[C@H](C(=O)ON4C(=O)CCC4=O)CC3)C1=O)C(F)(F)F)[C@]1(C)O[C@H]1[C@H](C)C1C[C@@](O)(NC(=O)O1)[C@H](OC)/C=C/C=C(\C)C2 (stereo partly drawn) [CE-038] | 6.37 | 6.06 | 6.79 | – | – | – |
| COc1cc2cc(c1Cl)N(C)C(=O)C[C@H](OC(=O)[C@H](C)OCCOCCOCCOCCOCCOCCN1C(=O)C=CC1=O)[C@]1(C)O[C@H]1[C@H](C)C1C[C@@](O)(NC(=O)O1)[C@H](OC)/C=C/C=C(\C)C2 [CE-046] | 6.63 | 6.34 | 6.43 | – | – | – |
| COCC(S)(CCC(=O)N(C)[C@@H](C)C(=O)OC1CC(=O)N(C)c2cc(cc(OC)c2Cl)C/C(C)=C/C=C/[C@@H](OC)[C@@]2(O)C[C@H](OC(=O)N2)[C@@H](C)[C@@H]2O[C@@]12C)COC (stereo partly drawn) [CE-024] | 7.30 | 7.64 | 7.70 | – | – | – |
| COc1cc2cc(c1Cl)N(C)C(=O)C[C@H](OC(=O)[C@H]1CC[C@H](CSC3CC(=O)N(C[C@H]4CC[C@H](C(=O)ON5C(=O)CCC5=O)CC4)C3=O)CC1)[C@]1(C)O[C@H]1[C@H](C)C1C[C@@](O)(NC(=O)O1)[C@H](OC)/C=C/C=C(\C)C2 (stereo partly drawn) [CE-036] | 8.16 | 7.88 | 8.09 | – | – | – |
| COc1cc2cc(c1Cl)N(C)C(=O)C[C@H](OC(=O)C(COCCSSC)OC)[C@]1(C)O[C@H]1[C@H](C)C1C[C@@](O)(NC(=O)O1)[C@H](OC)/C=C/C=C(\C)C2 (stereo partly drawn) [CE-056] | 6.66 | 7.77 | 7.41 | – | – | – |
| COc1cc2cc(c1Cl)N(C)C(=O)C[C@H](OC(=O)[C@H](C)N(C)C(=O)CCC(C)(C#N)SSC)[C@]1(C)O[C@H]1[C@H](C)[C@@H]1C[C@@](O)(NC(=O)O1)[C@H](OC)/C=C/C=C(\C)C2 (stereo partly drawn) [CE-019] | 7.24 | 6.82 | 7.19 | – | – | – |
| COc1cc2cc(c1Cl)N(C)C(=O)C[C@H](OC(=O)[C@H](C)OCCOCCSC1CC(=O)N(CCC(=O)NCCOCCOCCOCCC(=O)ON3C(=O)CCC3=O)C1=O)[C@]1(C)O[C@H]1[C@H](C)C1C[C@@](O)(NC(=O)O1)[C@H](OC)/C=C/C=C(\C)C2 (stereo partly drawn) [XDCE-M-002] | 7.19 | 7.29 | 7.38 | – | – | – |
| COCC(CCC(=O)N(C)[C@H](C)C(=O)OC1CC(=O)N(C)c2cc(cc(OC)c2Cl)C/C(C)=C/C=C/[C@@H](OC)[C@@]2(O)C[C@H](OC(=O)N2)[C@@H](C)[C@@H]2O[C@@]12C)(COC)SSC (stereo partly drawn) [CE-016] | 7.37 | 7.17 | 7.63 | – | – | – |
| COc1cc2cc(c1Cl)N(C)C(=O)C[C@H](OC(=O)[C@H](C)N(C)[C@H](CCSSC)C(F)(F)F)[C@]1(C)O[C@H]1[C@H](C)[C@@H]1C[C@@](O)(NC(=O)O1)[C@H](OC)/C=C/C=C(\C)C2 (single isomer, unassigned) [CE-030] | 8.49 | 8.21 | 8.62 | – | – | – |
| COc1cc2cc(c1Cl)N(C)C(=O)C[C@H](OC(=O)[C@H](C)OCCOCCOCCOCCOCCOCCNC(=O)CBr)[C@]1(C)O[C@H]1[C@H](C)C1C[C@@](O)(NC(=O)O1)[C@H](OC)/C=C/C=C(\C)C2 [CE-052a] | 8.01 | 7.74 | 7.48 | – | – | – |
